Reference: US20260223854A1, “AN HERBICIDAL COMBINATION, COMPOSITION AND METHOD OF CONTROLLING WEEDS USING THE SAME” (priority 2023, published 2026)

Columns and labels:
Format in all cases: in vivo
Borreria verticillata = assay: Greenhouse post-emergence herbicidal activity on Borreria verticillata; conditions: L-glufosinate ammonium 150 g a.i./ha
Experimental: (§1) The expected efficacy of a combination of L-glufosinate ammonium and the other herbicides was calculated using the well-established Colby method. Any difference between the observed and “expected” efficacy could be attributed to synergy between the two compounds.
(§2) In the Colby method, the expected (or predicted) response of a combination of herbicides is calculated by taking the product of the observed response for each individual component of the combination when applied alone, divided by 100, and subtracting this value from the sum of the observed response for each component when applied alone. An unexpected enhancement in efficacy of the combination is then determined by comparing the observed response of the combination to the expected (or predicted) response as calculated from the observed response of each individual component alone. If the observed response of the combination is greater than the expected (or predicted) response, or stated conversely, if the difference between the observed and expected response is greater than zero, then the combination is said to be synergistic or unexpectedly effective (Colby, S. R., Weeds, 1967 (15), p. 20-22). The Colby method requires only a single dose of each herbicide applied alone and the mixture of both doses. The formula used to calculate the expected efficacy (EE) which was compared with the observed efficacy (OE) to determine the efficacy of the present disclosure is explained hereinbelow:
(§3) Methodology: Greenhouse trials were conducted to evaluate the efficacy of the combination of L-glufosinate ammonium and triketone herbicides—mesotrione and tembotrione—on weeds Amaranthus viridis, Borreria verticillata, Brachiaria decumbens and Eleusine indica.
(§4) The soil used was sandy clay loam—sand: 68.0%; silt: 8.0%; clay: 24.0%.
(§5) All treatments were in 4 replications per treatment with a spray volume of 150 L/ha.
The percentage efficacy was calculated at 28 and 35 days after application (DAA). The target weed was Borreria verticillata, and the concentration of the herbicide and the results are recorded in Table 2.
The percentage efficacy was calculated at 3 and 7 days of application (DAA). The target weed was Borreria verticillata, and the concentration of the herbicide and the results are recorded in Table 6.

Brachiaria decumbens = assay: Greenhouse post-emergence herbicidal activity on Brachiaria decumbens; conditions: 3 DAA, L-glufosinate ammonium 150 g a.i./ha
Experimental: as §1, §2, §3, §4, §5
The percentage efficacy was calculated at 14 days after application (DAA). The target weed was Brachiaria decumbens, and the concentration of the herbicide and the results are recorded in Table 1.
The percentage efficacy was calculated at 3 days of application (DAA). The target weed was Brachiaria decumbens and the concentration of the herbicide and the results are recorded in Table 7.

Eleusine indica = assay: Greenhouse post-emergence herbicidal activity on Eleusine indica; conditions: L-glufosinate ammonium 150 g a.i./ha
Experimental: as §1, §2, §3, §4, §5
The percentage efficacy was calculated at 14 days after application (DAA). The target weed was Eleusine indica, and the concentration of the herbicide and the results are recorded in Table 3.
The percentage efficacy was calculated at 3, 7, 21, 28, 35 days of application (DAA). The target weed was Eleusine indica, and the concentration of the herbicide and the results are recorded in Table 8.

Amaranthus viridis = assay: Greenhouse post-emergence herbicidal activity on Amaranthus viridis; conditions: L-glufosinate ammonium 150 g a.i./ha
Experimental: as §1, §2, §3, §4, §5
The percentage efficacy was calculated at 3 and 7 days after application (DAA). The target weed was Amaranthus viridis, and the concentration of the herbicide and the results are recorded in Table 4.
The percentage efficacy was calculated at 3 and 7 days of application (DAA). The target weed was Amaranthus viridis, and the concentration of the herbicide and the results are recorded Table 5.

[1] = 3 DAA, tembotrione 53 g a.i./ha, Table 6
[2] = 7 DAA, tembotrione 53 g a.i./ha, Table 6
[3] = 28 DAA, mesotrione 100 g a.i./ha, Table 2
[4] = 35 DAA, mesotrione 100 g a.i./ha, Table 2
[5] = mesotrione 100 g a.i./ha, Table 1
[6] = tembotrione 53 g a.i./ha, Table 7
[7] = 3 DAA, tembotrione 53 g a.i./ha, Table 8
[8] = 7 DAA, tembotrione 53 g a.i./ha, Table 8
[9] = 14 DAA, mesotrione 100 g a.i./ha, Table 3
[10] = 21 DAA, tembotrione 53 g a.i./ha, Table 8
[11] = 28 DAA, tembotrione 53 g a.i./ha, Table 8
[12] = 35 DAA, tembotrione 53 g a.i./ha, Table 8
[13] = 3 DAA, mesotrione 100 g a.i./ha, Table 4
[14] = 3 DAA, tembotrione 53 g a.i./ha, Table 5
[15] = 7 DAA, mesotrione 100 g a.i./ha, Table 4
[16] = 7 DAA, tembotrione 53 g a.i./ha, Table 5

Compound	% Control (Borreria verticillata; [1]) [%]	% Control (Borreria verticillata; [2]) [%]	% Control (Borreria verticillata; [3]) [%]	% Control (Borreria verticillata; [4]) [%]	% Control (Brachiaria decumbens; [5]) [%]	% Control (Brachiaria decumbens; [6]) [%]	% Control (Eleusine indica; [7]) [%]	% Control (Eleusine indica; [8]) [%]	% Control (Eleusine indica; [9]) [%]	% Control (Eleusine indica; [10]) [%]	% Control (Eleusine indica; [11]) [%]	% Control (Eleusine indica; [12]) [%]	% Control (Amaranthus viridis; [13]) [%]	% Control (Amaranthus viridis; [14]) [%]	% Control (Amaranthus viridis; [15]) [%]	% Control (Amaranthus viridis; [16]) [%]
CP(=O)(O)CC[C@H](N)C(=O)O.N [L-glufosinate ammonium, ammonium (2S)-2-amino-4-(methylphosphinato) butyric acid]	55	80	90	85	40	40	40	50	30	50	30	40	40	50	80	80
CS(=O)(=O)c1ccc(C(=O)C2C(=O)CCCC2=O)c([N+](=O)[O-])c1 [Mesotrione, mesotrione]			75	75	10				20				10		30	
CS(=O)(=O)c1ccc(C(=O)C2C(=O)CCCC2=O)c(Cl)c1COCC(F)(F)F [Tembotrione, tembotrione]	10	30				8	5	15		28	35	20		10		30
